This note sets out measurements from PMC8764865, “Activity-based protein profiling reveals dynamic substrate-specific cellulase secretion by saprotrophic basidiomycetes” (Biotechnology for Biofuels and Bioproducts, 2022).

SMILES strings stand for the structures. pKi: −log10 of the molar value.

Common to all, as to assay type: biochemical
One test has as its target T1, LsGH5_5A (Trametes sp., UniProt Z9YXY2URI3).
T1 construct: native signal peptide removed (alpha-factor secretion signal), C-terminal 6xHis (intact), codon-optimised, Pichia pastoris X-33
T1 sequence (Z9YXY2URI3 1-398): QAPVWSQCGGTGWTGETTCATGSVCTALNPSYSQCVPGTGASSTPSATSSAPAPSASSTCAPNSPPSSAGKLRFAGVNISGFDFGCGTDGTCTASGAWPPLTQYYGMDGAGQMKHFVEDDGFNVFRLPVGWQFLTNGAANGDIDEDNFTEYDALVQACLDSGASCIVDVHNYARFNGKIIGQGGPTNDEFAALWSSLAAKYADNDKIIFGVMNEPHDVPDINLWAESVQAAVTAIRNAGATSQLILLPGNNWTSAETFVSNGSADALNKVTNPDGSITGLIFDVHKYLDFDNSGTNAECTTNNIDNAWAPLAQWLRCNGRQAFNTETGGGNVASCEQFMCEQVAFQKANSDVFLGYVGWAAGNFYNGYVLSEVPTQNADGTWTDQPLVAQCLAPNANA
Nature of the test: continuous fluorogenic inhibition kinetics, 4MU-GG substrate. Particulars: covalent, time-dependent; up to 50 uM inhibitor; 0.4 mM substrate stock mixed 1:1; NaOAc pH 4.0.

Test [1] deals with T2, LsGH10A (Trametes sp., UniProt Z9JQD7XB80).
T2 construct: native signal peptide removed (alpha-factor secretion signal), C-terminal 6xHis, codon-optimised, Pichia pastoris X-33; later-eluting Superdex 200 peak
Described as above. The note with it: covalent, time-dependent; up to 50 uM inhibitor; 0.4 mM substrate stock mixed 1:1; NaOAc pH 4.0.

The target of another test is T3, TlGH12A (Pilatotrama ljubarskyi, UniProt Z9OT85M9A7).
T3 construct: native signal peptide removed (alpha-factor secretion signal), C-terminal 6xHis, codon-optimised, Pichia pastoris X-33
T3 sequence (Z9OT85M9A7 1-225): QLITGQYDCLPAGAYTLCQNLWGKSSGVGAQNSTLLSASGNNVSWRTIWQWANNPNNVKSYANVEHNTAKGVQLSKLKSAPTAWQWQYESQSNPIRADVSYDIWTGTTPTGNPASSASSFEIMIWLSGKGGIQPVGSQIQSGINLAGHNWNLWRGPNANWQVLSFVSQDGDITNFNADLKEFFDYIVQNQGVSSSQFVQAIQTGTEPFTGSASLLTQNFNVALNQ
The description is as above. Particulars: covalent, time-dependent; up to 50 uM inhibitor; 0.4 mM substrate stock mixed 1:1; NaOAc pH 4.0.

The target in test [2] is T2, LsGH10A. Nature of the test: continuous fluorogenic inhibition kinetics (4-methylumbelliferyl glycoside). The note with it: non-covalent; no covalent inhibition discernible after 1 h; 50 mM NaOAc pH 4.0 final; inhibition assay, printed only as affinity.

Turning to `OC[C@H]1[C@H]2O[C@H]2[C@H](O)[C@@H](O)[C@@H]1O[C@@H]1O[C@H](CO)[C@@H](O)[C@H](O)[C@H]1O` [GGcyc], the ki/KI result was “clear time-dependent inhibition of LsGH5_5A, TlGH12A, and LsGH10A by GGcyc” on LsGH5_5A; “clear time-dependent inhibition of LsGH5_5A, TlGH12A, and LsGH10A by GGcyc” at LsGH10A [1]; “clear time-dependent inhibition of LsGH5_5A, TlGH12A, and LsGH10A by GGcyc” at TlGH12A.

At LsGH10A [2], `O=C(CCCC[C@@H]1SC[C@@H]2NC(=O)N[C@@H]21)NCCCCCCCCN1[C@H]2[C@H](O)[C@@H](O)[C@H](O[C@@H]3OC[C@@H](O)[C@H](O)[C@H]3O)C[C@H]21` (stereo partly shown) [Biotin-ABP-Xyn] had a pKi of 7.68.
